Data published in patent publication US20230416207A1, “CRYSTALLINE FORMS OF QUINAZOLINONE COMPOUND AND PROCESS FOR PREPARING THE SAME” (priority 2020, published 2023).
In brackets after ≈: the same amount, converted by molar mass.

What was measured:
Type in all cases: physicochemical
[1] = Solubility of crystalline forms in fasted-state simulated intestinal fluid (FaSSIF)
Description: (§1) The UPLC data of the present disclosure were collected on Waters H Class, with photo-diode array detector. The UPLC parameters for purity and solubility test of the present disclosure were as follows: • 1. Column: Waters Xbridge C18, 150×4.6 mm, 5 μm • 2. Mobile phase: A: 0.05% trifluoroacetic acid in water; B: 0.05% trifluoroacetic acid in acetonitrile
Suspend Forms D and Z of the present disclosure and Form B in the prior art in fasted-state simulated intestinal fluid (FaSSIF) to form suspensions, respectively. After equilibrium for 1 hour, 2 hours and 4 hours, filter the suspensions to form saturated solutions. Determine the concentration of API in corresponding saturated solution by HPLC.

[2] = Particle size distribution study (laser particle size analyzer); conditions: for D10 / D50 / D90 / MV: wet method, Isopar G (0.2% lecithin), sonication 30 s
Procedure: The particle size distribution results of the present disclosure were collected on S3500-type laser particle size analyzer of the Microtrac company. The Microtrac S3500 was equipped with an SDC (Sample Delivery Controller) sampling system. The wet method was used in this test, using Isopar G (containing 0.2% lecithin) as the test dispersion medium. The process parameters of the laser particle size analyzer were as follows.
Approximately 10-30 mg of Form D of the present disclosure and Form B in the prior art were added into 5 mL Isopar G (0.2% lecithin) to form a suspension, respectively. The suspension was mixed well and then loaded into SDC loading system. Adjust the shading intensity to an appropriate range, and then started to collect data after sonication for 30 s. The results were summarized in Table 20, and the particle size distribution diagrams of Form D and Form B were shown in FIGS. 35 to 36, respectively.

[3] = Hygroscopicity study (DVS); conditions: for Water uptake at 80% RH: 25° C.; for Hygroscopicity: class per Chinese Pharmacopoeia 2010
Procedure: The dynamic vapor sorption diagrams of the present disclosure were collected on Intrinsic-type and Intrinsic Plus-type dynamic vapor sorption instruments of SMS company. The process parameters of the dynamic vapor sorption test of the present disclosure were as follows: • Temperature: 25° C. • Protection gas and its flow rate: N2, 200 mL/minute • dm/dt: 0.002%/minute • Minimum dm/dt equilibration time: 10 minutes • Maximum Equilibration Time: 180 minutes • Relative humidity range: 0% RH-95% RH-0% RH • Relative humidity gradient: 10% (0% RH-90% RH-0% RH), 5% (90% RH-95% RH and 95% RH-90% RH).
Weigh approximately 10 mg of Form Z of the present disclosure and Form B in the prior art for DVS test, and then collect the obtained solid for XRPD analysis. The results were summarized in Table 19, DVS plot of Form B was shown in FIG. 29, XRPD overlay of Form B was shown in FIG. 30, DVS plot of Form Z was shown in FIG. 31, and XRPD overlay of Form Z was shown in FIG. 32.
Description and definition of hygroscopicity (see appendix XIX J, guidance for hygroscopicity evaluation of Pharmacopoeia of the People's Republic of China 2010) • Deliquescent: sufficient water is absorbed to form a liquid, • Very hygroscopic: increase in mass is equal to or greater than 15 percent, • Hygroscopic: increase in mass is less than 15 percent and equal to or greater than 2 percent, • Slightly hygroscopic: increase in mass is less than 2 percent and equal to or greater than 0.2 percent. • Non-hygroscopic: increase in mass is less than 0.2 percent.

[4] = Solubility of crystalline forms in simulated gastric fluid (SGF)
Description: as §1
Suspend Forms D, AL, and Z of the present disclosure and Form B in the prior art in simulated gastric fluid (SGF) to form suspensions, respectively. After equilibrium for 1 hour, 2 hours and 4 hours, filter the suspensions to form saturated solutions. Determine the concentration of API in corresponding saturated solution by HPLC.

[5] = Crystal habit study (PLM); conditions: for Crystal habit (PLM): dispersed in vacuum pump oil; for Powder flow property: inferred from PLM crystal habit
Procedure: The polarized light microscope photos of the present disclosure were taken at room temperature with a Zeiss microscope Axio Scope.A1 equipped with an Axiocam 305 color camera and 5×, 10×, 20× and 50× objective lenses.
Weigh about 10 mg of Forms Z and AL of the present disclosure onto a glass slide, respectively. Disperse each solid with several vacuum pump oil, and then cover with a cover glass. Observe the sample using PLM.

SMILES | Solubility in FaSSIF ([1]; equilibrium 1 hr) | Solubility in FaSSIF ([1]; equilibrium 2 hr) | Solubility in FaSSIF ([1]; equilibrium 4 hr) | D10 [2] | D50 [2] | D90 [2] | MV [2] | Water uptake at 80% RH [3] | Hygroscopicity [3] | Solubility in SGF ([4]; equilibrium 1 hr) | Crystal habit (PLM) [5] | Powder flow property [5] | Solubility compared with Form B [1] | Solubility compared with Form B [4] | Solubility in SGF ([4]; equilibrium 2 hr) | Solubility in SGF ([4]; equilibrium 4 hr) | other results
CC(C)c1nc2cc(O)ccc2c(=O)n1-c1ccc(C#N)cc1 [Form B, 4-(7-hydroxy-4-oxo-2-propan-2-ylquinazolin-3-yl) benzonitrile, reference compound] | 33.3 µg/mL (≈ 109 µM) | 34.8 µg/mL (≈ 114 µM) | 35.9 µg/mL (≈ 118 µM) | 62.3 μm | 1085.0 μm | 1331.0 μm | 795.2 μm | 0.2485 | Slightly hygroscopic (increase in mass is less than 2 percent and equal to or greater than 0.2 percent) | 77.5 µg/mL (≈ 254 µM) | – | – | – | – | – | – | solubility at 2 h ([4]; simulated gastric fluid (SGF), simulated gastric fluid, thermodynamic from solid, equilibrium 2 hr): 75.2 µg/mL (≈ 246 µM); solubility at 4 h ([4]; simulated gastric fluid (SGF), simulated gastric fluid, thermodynamic from solid, equilibrium 4 hr): 73.6 µg/mL (≈ 241 µM)
CC(C)c1nc2cc(O)ccc2c(=O)n1-c1ccc(C#N)cc1 [Form Z, 4-(7-hydroxy-4-oxo-2-propan-2-ylquinazolin-3-yl) benzonitrile] | 31.4 µg/mL (≈ 103 µM) | 42.7 µg/mL (≈ 140 µM) | – | – | – | – | – | 0.0303 | Non-hygroscopic (increase in mass is less than 0.2 percent) | 79.6 µg/mL (≈ 261 µM) | regular particles | relatively good property on powder flow | better solubility than Form B | better solubility than Form B | 90.7 µg/mL (≈ 297 µM) | 86.7 µg/mL (≈ 284 µM) | solubility at 4 h ([1]; fasted-state simulated intestinal fluid (FaSSIF), thermodynamic from solid, equilibrium 4 hr): 56.1 µg/mL (≈ 184 µM); Hygroscopicity compared with Form B [3]: relatively lower hygroscopicity than Form B
CC(C)c1nc2cc(O)ccc2c(=O)n1-c1ccc(C#N)cc1 [Form D, 4-(7-hydroxy-4-oxo-2-propan-2-ylquinazolin-3-yl) benzonitrile] | – | 88.3 µg/mL (≈ 289 µM) | 87.1 µg/mL (≈ 285 µM) | 53.9 μm | 117.2 μm | 175.9 μm | 116.2 μm | – | – | 98.7 µg/mL (≈ 323 µM) | – | – | better solubility than Form B | better solubility than Form B | 95.4 µg/mL (≈ 312 µM) | 103.3 µg/mL (≈ 338 µM) | Uniformity of particle size distribution compared with Form B [2]: more uniform particle size distribution than Form B
CC(C)c1nc2cc(O)ccc2c(=O)n1-c1ccc(C#N)cc1 [Form AL, 4-(7-hydroxy-4-oxo-2-propan-2-ylquinazolin-3-yl) benzonitrile] | – | – | – | – | – | – | – | – | – | 77.4 µg/mL (≈ 253 µM) | regular particles | relatively good property on powder flow | – | better solubility than Form B | 78.8 µg/mL (≈ 258 µM) | 79.5 µg/mL (≈ 260 µM) | –
